In patent US20050059726A1, “Pyrrolidine-2-ones as factor xa inhibitors” (priority 2001, published 2005) one finds Ki data, which are given here for 27 compounds.

Where a name gives a salt, the structure may show the parent alone.

Sequence of human Factor Xa (P00742 235-488 limits assumed): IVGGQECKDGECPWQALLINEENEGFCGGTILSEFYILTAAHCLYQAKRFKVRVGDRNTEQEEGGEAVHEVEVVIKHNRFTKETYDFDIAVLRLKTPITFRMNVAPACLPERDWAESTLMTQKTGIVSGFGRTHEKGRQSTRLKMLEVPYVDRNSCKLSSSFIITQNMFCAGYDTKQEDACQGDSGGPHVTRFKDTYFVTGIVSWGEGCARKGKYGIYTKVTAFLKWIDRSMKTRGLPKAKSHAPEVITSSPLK
Sequence of human Factor Xa (P00742 41-179 partner limits assumed): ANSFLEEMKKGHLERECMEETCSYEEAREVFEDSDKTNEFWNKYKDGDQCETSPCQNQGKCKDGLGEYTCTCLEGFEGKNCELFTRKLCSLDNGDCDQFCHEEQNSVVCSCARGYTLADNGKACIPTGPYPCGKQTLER

The experiment has as its target human Factor Xa (Homo sapiens, UniProt P00742). As to the kind of experiment: In vitro assay for inhibition of Factor Xa (2), fluorogenic assay. The class given is biochemical. The settings on record: substrate Rhodamine 110, bis-(CBZ-glycylglycyl-L-arginine amide 10 μM), Ki calculated from IC50. As for the experimental part:
In Vitro Assay for Inhibition of Factor Xa (2)
All other compounds of the present invention were tested for their Factor Xa inhibitory activity as determined in vitro by their ability to inhibit human Factor Xa in a fluorogenic assay, using Rhodamine 110, bis-(CBZ-glycylglycyl-L-arginine amide as the fluorogenic substrate. Compounds were diluted from a 10 mM stock solution in dimethylsulfoxide at appropriate concentrations. Assay was performed at room temperature using buffer consisting of: 50 mM Tris-HCl, 150 mM NaCl, 5 mM CaCl2, pH 7.4. containing human Factor Xa (final conc. Of 0.0003U.ml−1). Compound and enzyme were preincubated for 15 min prior to addition of the substrate (final conc. of 10 μM). The reaction was stopped after 3 hrs with the addition of H-D-PHE-PRO-ARG-Chloromethylketone. […] To obtain IC50 values the data were analysed using ActivityBase® and XLfit®.
Calculation of Ki values:
Ki=IC50/(1+[Substrate]/Km)
The Ki value for the above assay can be obtained by dividing the IC50 value by 1.6.
As to `CS(=O)(=O)c1ccccc1-c1ccc(N2CC[C@H](NS(=O)(=O)c3cc4cc(Cl)ccc4o3)C2=O)c(F)c1` [Example 5, 5-Chloro-N-{(3S)-1-[3-fluoro-2′-(methylsulfonyl)-1,1′-biphenyl-4-yl]-2-oxopyrrolidin-3-yl}-1-benzofuran-2-sulfonamide], the Ki (usually the dissociation constant of the complex between target and ligand, obtained from inhibition or displacement) was below 10 nM.

Take `CS(=O)(=O)c1ccccc1-c1ccc(N2CC[C@H](NS(=O)(=O)c3cccc4cnccc34)C2=O)c(F)c1` [Example 6, N-{(3S)-1-[3-Fluoro-2′-(methylsulfonyl)-1,1′-biphenyl-4-yl]-2-oxopyrrolidin-3-yl}isoquinoline-5-sulfonamide]: the Ki was below 1000 nM.

As to `CS(=O)(=O)c1ccccc1-c1ccc(N2CC[C@H](NS(=O)(=O)/C=C/c3ccc(Cl)cc3)C2=O)c(F)c1` [Example 7, (E)-2-(4-Chlorophenyl)-N-{(3S)-1-[3-fluoro-2′-(methylsulfonyl)-1,1′-biphenyl-4-yl]-2-oxopyrrolidin-3-yl}ethenesulfonamide], the inhibitory constant (Ki) was below 10 nM.

For `CS(=O)(=O)c1ccccc1-c1ccc(N2CC[C@H](NS(=O)(=O)c3ccc(-c4ccc(Cl)s4)s3)C2=O)c(F)c1` [Example 8, 5′-Chloro-N-{(3S)-1-[3-fluoro-2′-(methylsulfonyl)-1,1′-biphenyl-4-yl]-2-oxopyrrolidin-3-yl}-2,2′-bithiophene-5-sulfonamide], the inhibition constant (Ki) was below 10 nM.

As to `CN(C)c1ccc2cc(S(=O)(=O)N[C@H]3CCN(c4ccc(-c5ccccc5S(C)(=O)=O)cc4F)C3=O)ccc2c1` [Example 9, 6-(Dimethylamino)-N-{(3S)-1-[3-fluoro-2′-(methylsulfonyl)-1,1′-biphenyl-4-yl]-2-oxopyrrolidin-3-yl}naphthalene-2-sulfonamide], the Ki is below 1000 nM.

With `CS(=O)(=O)c1ccccc1-c1ccc(N2CC[C@H](NS(=O)(=O)c3cc4ccc(Cl)cc4s3)C2=O)c(F)c1` [Example 11, 6-Chloro-N-{(3S)-1-[3-fluoro-2′-(methylsulfonyl)-1,1′-biphenyl-4-yl]-2-oxopyrrolidin-3-yl}-1-benzothiophene-2-sulfonamide], the Ki was below 10 nM.

Consider `CS(=O)(=O)c1ccccc1-c1ccc(N2CC[C@H](NS(=O)(=O)c3cc4cc(Cl)ccc4s3)C2=O)c(F)c1` [Example 12, 5-Chloro-N-{(3S)-1-[3-fluoro-2′-(methylsulfonyl)-1,1′-biphenyl-4-yl]-2-oxopyrrolidin-3yl}-1-benzothiophene-2-sulfonamide], for which the Ki was below 10 nM.

On to `NS(=O)(=O)c1ccccc1-c1ccc(N2CC[C@H](NS(=O)(=O)c3cc4ccc(Cl)cc4s3)C2=O)c(F)c1` [Example 15, N-{(3S)-1-[2′-(Aninosulfonyl)-3-fluoro-1,1′-biphenyl-4-yl]-2-oxopyrrolidin-3-yl}-6-chloro-1-benzothiophene-2-sulfonamide], for which the inhibition constant Ki was below 10 nM.

On to `C/C(=C\S(=O)(=O)N[C@H]1CCN(c2ccc(-c3ccccc3S(N)(=O)=O)cc2F)C1=O)c1ccc(Cl)s1` [Example 16, 4′-[(3S)-3-({[(1E)-2-(5-Chlorothien-2-yl)prop-1-enyl]sulfonyl}amino)-2-oxopyrrolidin-1-yl]-3′-fluoro-1,1′-biphenyl-2-sulfonamide], for which the Ki is below 10 nM.

Turning to `O=C1[C@@H](NS(=O)(=O)/C=C/c2ccc(Cl)s2)CCN1c1ccc(-c2ccccc2[N+](=O)[O-])cn1` [Example 17, (E)-2-(5-Chlorothien-2-yl)-N-{(3S)-1-[5-(2-nitrophenyl)pyridin-2-yl]-2-oxopyrrolidin-3-yl}ethenesulfonamide], the Ki was below 10 nM.

For `O=C1[C@@H](NS(=O)(=O)/C=C/c2ccc(Cl)s2)CCN1c1ccc(-c2ccccc2[N+](=O)[O-])cc1F` [Example 18, (E)-2-(5-Chlorothien-2-yl)-N-[(3S)-1-(3-fluoro-2′-nitro-1,1′-biphenyl-4-yl)-2-oxopyrrolidin-3-yl]ethenesulfonamide], the Ki was below 10 nM.

As to `O=C1[C@@H](NS(=O)(=O)/C=C/c2ccc(Cl)s2)CCN1c1ccc(-c2ccccc2C(F)(F)F)cn1` [Example 24, (E)-2-(5-Chlorothien-2-yl)-N-((3S)-2-oxo-1-{5-[2-(trifluoromethyl)phenyl]pyridin-2-yl}pyrrolidin-3yl)ethenesulfonamide], the Ki is below 10 nM.

For `CN(C)C(=O)c1ccccc1-c1ccc(N2CC[C@H](NS(=O)(=O)/C=C/c3ccc(Cl)s3)C2=O)nc1` [Example 25, 2-{6-[(3S)-3-({[(E)-2-(5-Chlorothien-2-yl)ethenyl]sulfonyl}amino)-2-oxopyrrolidin-1-yl]pyridin-3-yl}-N,N-dimethylbenzamide], the Ki is below 20 nM.

Regarding `N#Cc1ccccc1-c1ccc(N2CC[C@H](NS(=O)(=O)/C=C/c3ccc(Cl)s3)C2=O)nc1` [Example 26, (E)-2-(5-Chlorothien-2-yl)-N-{(3S)-1-[5-(2-cyanophenyl)pyridin-2yl]-2-oxopyrrolidin-3-yl}ethenesulfonamide], the Ki is below 10 nM.

Consider `CN(C)S(=O)(=O)c1ccccc1-c1ccc(N2CC[C@H](NS(=O)(=O)/C=C/c3ccc(Cl)s3)C2=O)nc1` [Example 28], for which the Ki is below 10 nM.

As for `CNS(=O)(=O)c1ccccc1-c1ccc(N2CC[C@H](NS(=O)(=O)/C=C/c3ccc(Cl)s3)C2=O)nc1` [Example 29, 2-{6-[(3S)-3-({[(E)-2-(5-Chlorothien-2-yl)ethenyl]sulfonyl}amino)-2-oxopyrrolidin-1-yl]pyridin-3-yl}-N-methylbenzenesulfonamide], the Ki was below 10 nM.

Consider `CN(c1ccccc1-c1ccc(N2CC[C@H](NS(=O)(=O)/C=C/c3ccc(Cl)s3)C2=O)nc1)S(C)(=O)=O` [Example 30, (E)-2-(5-Chlorothien-2-yl)-N-[(3S)-1-(5-{2-[methyl(methylsulfonyl)amino]phenyl}pyridin-2-yl)-2-oxopyrrolidin-3yl]ethenesulfonamide], for which the Ki was below 10 nM.

As for `CC(C)Oc1ccccc1-c1ccc(N2CC[C@H](NS(=O)(=O)/C=C/c3ccc(Cl)s3)C2=O)nc1` [Example 31, (E)-2-(5-Chlorothien-2-yl)-N-{(3S)-1-[5-(2-isopropoxyphenyl)pyridin-2-yl]-2-oxopyrrolidin-3-yl}ethenesulfonamide], the inhibition constant (Ki) was below 200 nM.

As to `CS(=O)(=O)c1ccccc1-c1ccc(N2CC[C@H](NS(=O)(=O)c3ccc(C#N)cc3)C2=O)c(F)c1` [Example 34], the Ki is below 1000 nM.

Regarding `CS(=O)(=O)c1ccccc1-c1ccc(N2CC[C@H](NS(=O)(=O)c3cc4ccc(Cl)cc4o3)C2=O)c(F)c1` [Example 36, 6-Chloro-N-{(3S)-1-[3-fluoro-2′-(methylsulfonyl)-1,1′-biphenyl-4yl]-2-oxopyrrolidin-3-yl}-1-benzofuran-2-sulfonamide], the Ki was below 10 nM.

As to `CS(=O)(=O)c1ccccc1-c1ccc(N2CC[C@H](NS(=O)(=O)c3cc4ncc(Cl)cc4s3)C2=O)c(F)c1` [Example 37, 6-Chloro-N-{(3S)-1-[3-fluoro-2′-(methylsulfonyl)-1,1′-biphenyl-yl]-2-oxopyrrolidin-3-yl}thieno[3,2b]pyridine-2-sulfonamide], the Ki was below 20 nM.

On to `CS(=O)(=O)c1ccccc1-c1ccc(N2CC[C@H](NS(=O)(=O)c3cc4nc(Cl)ccc4s3)C2=O)c(F)c1` [Example 38, 5-Chloro-N-{(3S)-1-[3-fluoro-2′-(methylsulfonyl)-1,1′-biphenyl-4-yl]-2-oxopyrrolidin-3-yl}thieno[3,2-b]pyridine-2-sulfonamide], for which the Ki is below 10 nM.

As to `C/C(=C\S(=O)(=O)N[C@H]1CCN(c2ccc(-c3ccccc3S(C)(=O)=O)cc2F)C1=O)c1ccc(Cl)s1` [Example 39, (1E)-2-(5-Chlorothien-2-yl)-N-{(3S)-1-[3-fluoro-2′-(methylsulfonyl)-1,1′-biphenyl-4yl]-2-oxopyrrolidin-3-yl}prop-1-ene-1-sulfonamide], the inhibitory constant (Ki) is below 10 nM.

In the case of `CC(C)(C)OC(=O)CN([C@H]1CCN(c2ccc(-c3ccccc3S(C)(=O)=O)cn2)C1=O)S(=O)(=O)/C=C/c1ccc(Cl)s1` [Example 40, tert-Butyl [{[(E)-2-(5-Chlorothien-2-yl)ethenyl]sulfonyl}((3S)-1-{5-[2-(methylsulfonyl)phenyl]pyridin-2-yl}-2-oxopyrrolidin-3-yl)amino]acetate], the Ki was below 10 nM.

On to `CS(=O)(=O)c1ccccc1-c1ccc(N2CC[C@H](N(CCN3CCOCC3)S(=O)(=O)/C=C/c3ccc(Cl)s3)C2=O)nc1` [Example 42, (E)-2-(5-Chlorothien-2-yl)-N-((3S)-1-{5-[2-(methylsulfonyl)Phenyl]pyridin-2-yl}-2-oxopyrrolidin-3-yl)-N-(2-morpholin-4-ylethyl)ethenesulfonamide Formate Salt (1:1)], for which the Ki is below 10 nM.

In the case of `CS(=O)(=O)c1ccccc1-c1ccc(N2CC[C@H](N(CC(N)=O)S(=O)(=O)/C=C/c3ccc(Cl)s3)C2=O)nc1` [Example 43, 2-[{[(E)-2-(5-Chlorothien-2-yl)ethenyl]sulfonyl}((3S)-1-{5-[2-(methylsulfonyl)phenyl]pyridin-2-yl}-2-oxopyrrolidin-3-yl)amino]acetamide], the Ki is below 10 nM.

For `CC(C)(C)OC(=O)N([C@H]1CCN(c2ccc(-c3ccccc3S(C)(=O)=O)cc2F)C1=O)S(=O)(=O)/C=C/c1ccc(Cl)s1` [Example 44, tert-Butyl [(E)-2-(5-chlorothien-2-yl)ethenyl]sulfonly{(3S)-1-[3-fluoro-2′-(methylsulfonyl)-1,1′-biphenyl-4yl]-2-oxopyrrolidin-3-yl}carbamate], the inhibitory constant (Ki) is below 10 nM.
